Results reported in patent US20260325417A1, “TOPICAL SKIN COMPOSITION CONTAINING 1,3-PROPANEDIOL AS ACTIVE INGREDIENT FOR MAINTAINING MICROBIOME BALANCE IN SKIN” (ACTIVON CO.,LTD., priority 2022, published 2026).

Assays:
S. epidermidis = test: Comparison of diol compounds, growth of beneficial bacteria; format: cell-based, Staphylococcus epidermidis; design: key to Effect on the growth of beneficial bacteria (S. epidermidis): ++: Growth promotion; +: No effect; −: Growth inhibition; − −: 50% or more growth inhibition
Description: (§1) FIG. 4 illustrates the results of a comparative analysis of the effects of diol compounds, specifically 1,3-propanediol, 2-methyl-1,3-propanediol, 1,3-butanediol, 2,3-butanediol, 1,2-pentanediol, and 1,2-hexanediol on the growth of harmful bacteria (upper graph) and beneficial bacteria (lower graph). FIG. 4A: 1,3-propanediol, FIG. 4B: 2-methyl-1,3-propanediol; FIG. 4C: 1,3-butanediol; FIG. 4D: 2,3-butanediol; FIG. 4E: 1,2-pentanediol; FIG. 4F: 1,2-Hexanediol.
(§2) • 1) Staphylococcus epidermidis ATCC 12228 and Staphylococcus aureus ATCC 6538 strains were obtained from ThermoFisher Scientific and cultured in tryptic soy broth (culture conditions: 32° C. for 18 hours). After culturing, they were diluted with 0.85% NaCl to adjust the absorbance (600 nm) to 0.5-0.6. • 2) 1,3-propanediol was obtained from Sigma-Aldrich. • 3) 2-methyl-1,3-propanediol, 1,3-butanediol, 2,3-butanediol, 1,2-pentanediol, and 1,2-hexanediol were all obtained from Sigma-Aldrich. • 4) Fructan was obtained from Sigma-Aldrich. • 5) Yeast extract was obtained from Sigma-Aldrich.

S. aureus = test: Comparison of diol compounds, growth of harmful bacteria; format: cell-based, Staphylococcus aureus
Description: as §1, §2

SMILES	Effect on the growth of beneficial bacteria (S. epidermidis) (S. epidermidis; diol compound 0.1 wt %)	Effect on the growth of beneficial bacteria (S. epidermidis) (S. epidermidis; diol compound 1 wt %)	Effect on the growth of beneficial bacteria (S. epidermidis) (S. epidermidis; diol compound 5 wt %)	Effect on the growth of beneficial bacteria (S. epidermidis) (S. epidermidis; diol compound 10 wt %)	Effect on the growth of beneficial bacteria (S. epidermidis) (S. epidermidis; diol compound 20 wt %)	Effect on the growth of harmful bacteria (S. aureus) (S. aureus; diol compound 0.1 wt %)	Effect on the growth of harmful bacteria (S. aureus) (S. aureus; diol compound 1 wt %)	Effect on the growth of harmful bacteria (S. aureus) (S. aureus; diol compound 5 wt %)	Effect on the growth of harmful bacteria (S. aureus) (S. aureus; diol compound 10 wt %)	Effect on the growth of harmful bacteria (S. aureus) (S. aureus; diol compound 20 wt %)
CC(O)CCO (stereo not drawn) [1,3-butanediol]	++	−	−	− − (50% or more growth inhibition)	− − (50% or more growth inhibition)	+	+	++	++	+++ (50% or more inhibition)
CCCCC(O)CO (stereo not drawn) [1,2-hexanediol]	++	−	− − (50% or more growth inhibition)	− − (50% or more growth inhibition)	− − (50% or more growth inhibition)	+	++	+++ (50% or more inhibition)	+++ (50% or more inhibition)	+++ (50% or more inhibition)
CC(O)C(C)O (stereo not drawn) [2,3-butanediol]	++	−	− − (50% or more growth inhibition)	− − (50% or more growth inhibition)	− − (50% or more growth inhibition)	+	+	++	+++ (50% or more inhibition)	+++ (50% or more inhibition)
